In patent US12091431B2, “Crystals” (AEROMICS, INC., priority 2016, dated 2024):
Values after ≈ are worked out from the molar mass of the structure shown. Where two headings read alike, the source gives them in different places.

How the values were obtained:
Type in all cases: physicochemical
[1] = Vacuum drying attempts of Form A
Protocol: Several attempts to dry Form A are tried. Rigorous conditions are initially selected due to the high temperature range at which the TGA weight loss is observed (above 90° C.). Drying under vacuum at 80° C. for 1 day results in brown solids stuck to the vial.
A drying attempt under milder conditions is attempted. The experiment begins by drying under vacuum at ambient temperature. […] Minor weight loss is noted after 6 hours at 63-65° C., so the sample is held in the vacuum oven at this temperature for 1 day, resulting in 11% gravimetric weight loss.

[2] = Stressing at elevated relative humidity; details: ~97% RH for 7 days
Protocol: The kinetic and thermodynamic hygroscopicity of Form A is assessed by DVS and stressing at elevated RH, respectively.

[3] = Dynamic vapor sorption (DVS); details: for XRPD of the post-DVS material (form change): after DVS sorption/desorption cycle; for hygroscopicity, weight gain from 5-95% RH: summary statement; for weight change upon desorption: DVS desorption after sorption to 95% RH
Protocol: Dynamic vapor sorption (DVS) data are collected on a VTI SGA-100 Vapor Sorption Analyzer. NaCl and PVP are used as calibration standards. Samples are not dried prior to analysis. Sorption and desorption data are collected over a range from 5% to 95% relative humidity (RH) at 10% RH increments under a nitrogen purge. The equilibrium criterion used for analysis is less than 0.0100% weight change in 5 minutes with a maximum equilibration time of 3 hours. Data are not corrected for the initial moisture content of the samples.

[4] = Slurry in water at room temperature, form by XRPD
Protocol: The slurry is repeated for 19 hours to gauge how quickly the conversion occurs and results again in Form N, indicating form conversion within 19 hours (starting material is the product from this example and from Example 21).

Solubility in water = experiment: Solubility in water
[5] = Hydrolysis in the solid state; details: reversion to N-[3,5-bis(trifluoromethyl)phenyl]-5-chloro-2-hydroxybenzamide

SMILES: O=C(Nc1cc(C(F)(F)F)cc(C(F)(F)F)c1)c1cc(Cl)ccc1OP(=O)(O)O [Form A, 2-{[3,5-bis(trifluoromethyl)phenyl]carbamoyl}-4-chlorophenyl dihydrogen phosphate ethyl acetate solvate]
- gravimetric weight loss on drying ([1]; under vacuum at 80° C. for 1 day): 30%
- gravimetric weight loss on drying ([1]; vacuum oven at 63-65° C. for 1 day): 11%
- outcome of vacuum drying at elevated temperature ([1]; vacuum, elevated temperature): decomposition and collapse of the crystalline structure
- form after stressing at elevated relative humidity [2]: form change to a mixture of materials with a minor Form N (hydrate) component
- weight loss upon desorption between 95% and 5% RH ([3]; DVS desorption, 95% to 5% RH): 8.73%
- moisture uptake between 5% and 95% RH ([3]; DVS sorption, 5% to 95% RH): 6.07 wt %
- weight gain 5%-75% RH ([3]; DVS sorption, 5%-75% RH): 1.65%
- weight gain 75%-95% RH ([3]; DVS sorption, 75%-95% RH): 4.42%
- weight loss upon equilibration at 5% RH ([3]; DVS, initial equilibration at 5% RH): 0.76 wt %
- XRPD of the post-DVS material (form change) [3]: change to a disordered unknown material
- hygroscopicity, weight gain from 5-95% RH ([3]; DVS): ~6%

SMILES: O=C(Nc1cc(C(F)(F)F)cc(C(F)(F)F)c1)c1cc(Cl)ccc1OP(=O)(O)O [Form B, 2-{[3,5-bis(trifluoromethyl)phenyl]carbamoyl}-4-chlorophenyl dihydrogen phosphate]
- time for form conversion to Form N in water slurry [4]: ≤ 19 h
- form after slurrying with water ([4]; 7 days, vacuum filtered): converts to Form N
- form after stressing at elevated relative humidity [2]: partial conversion to Form N
- weight change upon desorption [3]: All of this weight is lost
- weight gain upon sorption from 5% to 95% relative humidity ([3]; DVS sorption, 5% to 95% RH): 0.6 weight %
- weight loss at 5% relative humidity ([3]; DVS, 5% RH): 0.04 weight %
- XRPD of the post-DVS material (form change) [3]: no form change
- hygroscopicity, weight gain from 5-95% RH ([3]; DVS): ~0.6%

SMILES: O=C(Nc1cc(C(F)(F)F)cc(C(F)(F)F)c1)c1cc(Cl)ccc1OP(=O)(O)O [Form N, 2-{[3,5-bis(trifluoromethyl)phenyl]carbamoyl}-4-chlorophenyl dihydrogen phosphate hydrate]
- weight change upon desorption [3]: All of this weight is lost
- weight gain upon sorption from 5% to 95% relative humidity ([3]; DVS sorption, 5% to 95% RH, phosphate hydrate): 3 weight %
- weight loss upon equilibration to 5% relative humidity ([3]; DVS, initial equilibration to 5% RH, residual water likely): 30%
- XRPD of the post-DVS material (form change) ([3]; phosphate hydrate): no form change
- hygroscopicity, weight gain from 5-95% RH ([3]; DVS, phosphate hydrate): ~3%

SMILES: O=C(Nc1cc(C(F)(F)F)cc(C(F)(F)F)c1)c1cc(Cl)ccc1O [N-[3,5-bis(trifluoromethyl)phenyl]-5-chloro-2-hydroxybenzamide]
- solubility (Solubility in water; water, read-out: solubility in water): 0.003 mg/mL (≈ 7.82 µM)

SMILES: NCCO.NCCO.O=C(Nc1cc(C(F)(F)F)cc(C(F)(F)F)c1)c1cc(Cl)ccc1OP(=O)(O)O [bis ethanolamine salt, 2-((3,5-bis(trifluoromethyl)phenyl)carbamoyl)-4-chlorophenyl phosphate bis ethanolamine salt]
- hydrolysis in the solid state [5]: 1 % per day

SMILES: O=C(Nc1cc(C(F)(F)F)cc(C(F)(F)F)c1)c1cc(Cl)ccc1OP(=O)([O-])[O-].[Na+].[Na+] [bis sodium salt, 2-((3,5-bis(trifluoromethyl)phenyl)carbamoyl)-4-chlorophenyl phosphate bis sodium salt]
- hydrolysis in the solid state [5]: 1 % per day
- solubility (Solubility in water; pH 8.5 water, pH 8.5, aqueous buffer, read-out: solubility in pH 8.5 water): 20 mg/mL

SMILES: O=C(Nc1cc(C(F)(F)F)cc(C(F)(F)F)c1)c1cc(Cl)ccc1OP(=O)([O-])O.[Na+] [mono sodium salt, 2-((3,5-bis(trifluoromethyl)phenyl)carbamoyl)-4-chlorophenyl hydrogen phosphate mono sodium salt]
- hydrolysis in the solid state [5]: 1 % per day
